Patent EP0037224A1, “Rare earth metal carboxylates, their use as antimicrobial agents, and medicinal, cosmetic and cleansing compositions containing them” (THE PROCTER & GAMBLE COMPANY, priority 1980, dated 1981)

Assays:
[1] = system: S. aureus; experiment: Minimum Bactericidal Concentration test; assay type: cell-based; conditions: 10-minute contact with the test agent at 37°C; at least a 3 log unit reduction in viable cell count
[2] = system: E. coli; experiment: Minimum Bactericidal Concentration test; assay type: cell-based; conditions: 10-minute contact with the test agent at 37°C; at least a 3 log unit reduction in viable cell count
[3] = system: molds; conditions: cited from earlier work
[4] = system: Staphylococcus; conditions: cited from earlier work

Row | Compound | Minimum Bactericidal Concentration S. aureus [1] | Minimum Bactericidal Concentration E. coli [2] | concentration that inhibits molds [3] | concentration that inhibits Staphylococcus [4]
1 | O.O.O.O.O.O.[Cl-].[Cl-].[Cl-].[La+3] [LaCl3.6H2O] | >3500 ppm | >3500 ppm |  | 
2 | O.O.O.O.O.O.O.O.O=S(=O)([O-])[O-].O=S(=O)([O-])[O-].O=S(=O)([O-])[O-].[La+3].[La+3] [La2(SO4)3.8H2O] | >7100 ppm | >7100 ppm |  | 
3 | O.O.O.O.O.O.O=[N+]([O-])[O-].O=[N+]([O-])[O-].O=[N+]([O-])[O-].[La+3] [La(NO3)3.6H2O] | >4300 ppm | >4300 ppm |  | 
4 | O=[N+]([O-])[O-].O=[N+]([O-])[O-].O=[N+]([O-])[O-].[Ce+3] [cerium nitrate] |  |  | 1000 ppm | 1000 ppm
